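The compound was tested at five concentrations on cells cultured in 96-well plates, with a 48-hour exposure period. TGI: concentration producing complete growth inhibition.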
What was measured:
Test in all cases: NCI tumour cell line growth inhibition, 48 h
[1] = system: COLO 205 colon
[2] = system: DMS 114 small cell lung
[3] = system: SR leukemia
[4] = system: ACHN renal
[5] = system: CAKI-1 renal
[6] = system: MDA-MB-435
[7] = system: DMS 273 small cell lung
[8] = system: K-562 leukemia
[9] = system: OVCAR-5 ovarian
[10] = system: LXFL 529 NSCLC

SMILES	TGI [1] [µM]	TGI [2] [µM]	TGI [3] [µM]	TGI [4] [µM]	TGI [5] [µM]	TGI [6] [µM]	TGI [7] [µM]	TGI [8] [µM]	TGI [9] [µM]	TGI [10] [µM]
O=C(c1ccc(Cl)cc1)c1cnc(Nc2ccccc2Cl)s1	> 100	66.7	> 100	35.3	40	> 100	42.9	> 100	95.5	32.8
CCOc1ccc2c(c1)[n+]([O-])c(-c1ccccc1Cl)c(N)[n+]2[O-]	> 100	> 100	> 100	> 100	> 100	–	> 100	> 100	> 100	> 100

Source: PubChem BioAssay (NCI)
